According to patent publication US11530196B2, “Pyrimidine compound acting on EGFR and ERBB2” (CHINA RESOURCES PHARMACEUTICAL HOLDINGS COMPANY LIMITED, priority 2019, dated 2022):

What was measured:
[1] = Pharmacokinetic study, single intravenous and oral administration in mice; type: in vivo; conditions: mouse, plasma
Method: (§1) The purpose of this experiment was to investigate the pharmacokinetics (PK) of the compounds in different species after single intravenous and single oral administration of the test compounds.
(§2) After intravenous or oral administration, blood samples were collected from the animals, and the actual time of blood collection was recorded. After the blood samples were collected, the samples were immediately transferred to the labelled centrifuge tube containing K2-EDTA, and then centrifuged to obtain plasma. Plasma was transferred to pre-cooled centrifuge tubes, quick-frozen in dry ice and stored in an ultra-low temperature refrigerator at −70±10° C. until LC-MS/MS analysis was performed.
(§3) The plasma drug concentration data of the compounds were processed using pharmacokinetic software with a non-compartmental model. The peak concentration (Cmax) and time to peak (Tmax), as well as the quantifiable end time were obtained directly from the plasma concentration-time curve. The following pharmacokinetic parameters were calculated using the log-linear trapezoidal method: half-life (T1/2), apparent volume of distribution (Vdss), and clearance (Cl), area under the time-plasma concentration curve from point 0 to the end time point (AUC0-last), and initial concentration (C0).

Wild-type EGFR enzymes = target: T1, Wild-type EGFR enzymes (Homo sapiens, UniProt P00533); experiment: Kinase assay (HTRF KinEASE TK), EGFR WT; type: biochemical; conditions: read-out: Enzyme IC50
T1 construct: purchased Invitrogen PR7295B
Source text: (§4) To detect the inhibitory effect of compounds on EGFR WT, EGFR (D770_N771insNPG), ERBB2 (V777_G778ins>CG), EGFR T790M/L858R enzyme activities
(§5) EGFR WT (Invitrogen, Cat. No. PR7295B), EGFR [L858R] (Invitrogen, Cat. No. PR7447A), EGFR [d746-750] (Invitrogen, Cat. No. PV6179), ATP (Sigma, Cat. No. A7699-1G), DMSO (Sigma, Cat. No. D2650), DTT (Sigma, Cat. No. 43815), 384-well plate, compound dilution plate (Greiner, Cat. No. 781280), 384-well plate, test plate (Perkin Elmer, Cat. No. 6007299), HTRF KinEASE TK Kit (Cisbio, Cat. No. 62TK0PEB), magnesium chloride (Sigma, Cat. No. M1028), Orthovanadate (Sigma, Cat. No. 56508), BSA (Sigma, Cat. No. A7030), HEPES (Life technology, Cat. No. 11344-041).
(§6) The final test concentrations of the test compounds ranged from 10 μM to 0.17 nM in 3-fold gradient dilutions at 11 concentrations.
(§7) The preparation of the buffer, 50 mM HEPES (pH 7.5), 0.01% BSA, 5 mM MgCl2, and 0.1 mM Orthovanadate were contained in the buffer. After the preparation of the buffer, the enzyme and substrate were mixed with pre-diluted prepared compounds of different concentrations, and the mixture was placed at room temperature for 15 minutes. […] After the reaction was completed, the antibody was added to the assay, incubated at room temperature for 60 minutes and then detected by Envision (plate reading instrument), and data were collected. […]

[2] = target: EGFR L858R/T790M double mutant enzyme (Homo sapiens, UniProt P00533, L858R/T790M); experiment: Kinase assay (HTRF KinEASE TK), EGFR L858R/T790M; type: biochemical
Source text: as §4, §5, §6, §7

[3] = Pharmacokinetic study, single intravenous and oral administration in rats; type: in vivo; conditions: rat, plasma; for AUC(0-t): read-out: Exposure of AUC0-last
Method: as §1, §2, §3

[4] = test system: human lung cancer NCI-H1975 subcutaneous xenograft tumor; experiment: NCI-H1975 subcutaneous xenograft tumor BALB/c nude mouse model; type: in vivo, BALB/c nude mice
Method: Human lung cancer NCI-H1975 cells were cultured in vitro in a monolayer under the conditions of 1640 medium with 10% fetal bovine serum, 1% double antibodies and incubated at 37° C. in a 5% CO2 incubator. Routine treatment passages were performed twice a week. When the cell saturation was 80%-90% and the number reached the required level, the cells were collected, counted, and inoculated.
BALB/c nude mice, female, 6-8 weeks old, weighing 18-22 g. Provided by Shanghai Xipuer-Bikai Laboratory Animal Co., Ltd. or other qualified suppliers.
Tumor tissue was collected from H1975 tumor-bearing mice of human lung cancer xenograft model, cut into 2-3 mm diameter tumor blocks and inoculated subcutaneously at the right anterior scapula of Balb/c nude mice. When the average tumor volume was 145 mm^3, the tumors were randomly grouped according to their size, and the day of grouping was defined as day 0.
The experimental index was to examine whether tumor growth was inhibited, delayed or cured. Tumor diameters were measured with vernier calipers twice a week. The calculation formula of tumor volume was: V=0.5a×b^2, wherein a and b represented the long and short diameters of the tumor, respectively. The antitumor efficacy of the compounds was evaluated by TGI (%) or relative tumor proliferation rate T/C (%). TGI (%), reflecting the tumor growth inhibition rate. Calculation of TGI (%): TGI (%)=[(1−(average tumor volume at the end of administration of a treatment group−average tumor volume at the beginning of administration of this treatment group))/(average tumor volume at the end of treatment in the solvent control group−average tumor volume at the beginning of treatment of the solvent control group)]×100%. Relative tumor proliferation rate T/C (%): The calculation formula was as follows: T/C %=TRTV/CRTV×100% (TRTV: RTV in the treatment group; CRTV: RTV in the negative control group). The relative tumor volume (RTV) was calculated according to the results of tumor measurement, and the formula was RTV=Vt/V0, wherein V0 was the average tumor volume measured at the time of group administration (i.e., d0), and Vt was the average tumor volume at a certain measurement, TRTV and CRTV were taken on the same day. After the experiment, the tumor weight will be detected, and the percentage of T/Cweight will be calculated. Tweight and Cweight represented the tumor weight of the administration group and the solvent control group, respectively.

[5] = target: HER2 exon 20 insertion (V777_G778ins > CG) enzyme (Homo sapiens, UniProt P04626, INS777CG); experiment: Kinase assay (HTRF KinEASE TK), HER2 exon 20 insertion; type: biochemical
Source text: as §4, §5, §6, §7

[6] = intravenous injection 2 mg/kg, read-out: Exposure of AUC
[7] = intravenous injection 2 mg/kg, read-out: Vdss

Sequence of HER2 exon 20 insertion (V777_G778ins > CG) enzyme (P04626 with tags, fused parts or gaps INS777CG limits assumed): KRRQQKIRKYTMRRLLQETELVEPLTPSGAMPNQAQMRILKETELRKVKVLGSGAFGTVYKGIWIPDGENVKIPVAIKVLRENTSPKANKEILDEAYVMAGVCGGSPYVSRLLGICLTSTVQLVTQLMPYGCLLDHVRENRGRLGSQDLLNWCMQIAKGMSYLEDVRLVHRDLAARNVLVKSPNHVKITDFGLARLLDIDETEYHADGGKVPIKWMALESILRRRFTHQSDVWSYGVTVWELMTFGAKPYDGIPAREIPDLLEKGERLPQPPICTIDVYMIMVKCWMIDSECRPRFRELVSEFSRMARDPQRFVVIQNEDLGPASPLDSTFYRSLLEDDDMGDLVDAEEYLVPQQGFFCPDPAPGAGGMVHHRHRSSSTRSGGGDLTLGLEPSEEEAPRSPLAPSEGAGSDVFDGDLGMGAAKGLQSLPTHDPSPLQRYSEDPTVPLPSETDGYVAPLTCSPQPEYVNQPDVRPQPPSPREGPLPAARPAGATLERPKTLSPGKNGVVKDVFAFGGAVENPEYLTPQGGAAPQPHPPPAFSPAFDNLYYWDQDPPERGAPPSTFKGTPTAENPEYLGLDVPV
T1 sequence (P00533 25-1210): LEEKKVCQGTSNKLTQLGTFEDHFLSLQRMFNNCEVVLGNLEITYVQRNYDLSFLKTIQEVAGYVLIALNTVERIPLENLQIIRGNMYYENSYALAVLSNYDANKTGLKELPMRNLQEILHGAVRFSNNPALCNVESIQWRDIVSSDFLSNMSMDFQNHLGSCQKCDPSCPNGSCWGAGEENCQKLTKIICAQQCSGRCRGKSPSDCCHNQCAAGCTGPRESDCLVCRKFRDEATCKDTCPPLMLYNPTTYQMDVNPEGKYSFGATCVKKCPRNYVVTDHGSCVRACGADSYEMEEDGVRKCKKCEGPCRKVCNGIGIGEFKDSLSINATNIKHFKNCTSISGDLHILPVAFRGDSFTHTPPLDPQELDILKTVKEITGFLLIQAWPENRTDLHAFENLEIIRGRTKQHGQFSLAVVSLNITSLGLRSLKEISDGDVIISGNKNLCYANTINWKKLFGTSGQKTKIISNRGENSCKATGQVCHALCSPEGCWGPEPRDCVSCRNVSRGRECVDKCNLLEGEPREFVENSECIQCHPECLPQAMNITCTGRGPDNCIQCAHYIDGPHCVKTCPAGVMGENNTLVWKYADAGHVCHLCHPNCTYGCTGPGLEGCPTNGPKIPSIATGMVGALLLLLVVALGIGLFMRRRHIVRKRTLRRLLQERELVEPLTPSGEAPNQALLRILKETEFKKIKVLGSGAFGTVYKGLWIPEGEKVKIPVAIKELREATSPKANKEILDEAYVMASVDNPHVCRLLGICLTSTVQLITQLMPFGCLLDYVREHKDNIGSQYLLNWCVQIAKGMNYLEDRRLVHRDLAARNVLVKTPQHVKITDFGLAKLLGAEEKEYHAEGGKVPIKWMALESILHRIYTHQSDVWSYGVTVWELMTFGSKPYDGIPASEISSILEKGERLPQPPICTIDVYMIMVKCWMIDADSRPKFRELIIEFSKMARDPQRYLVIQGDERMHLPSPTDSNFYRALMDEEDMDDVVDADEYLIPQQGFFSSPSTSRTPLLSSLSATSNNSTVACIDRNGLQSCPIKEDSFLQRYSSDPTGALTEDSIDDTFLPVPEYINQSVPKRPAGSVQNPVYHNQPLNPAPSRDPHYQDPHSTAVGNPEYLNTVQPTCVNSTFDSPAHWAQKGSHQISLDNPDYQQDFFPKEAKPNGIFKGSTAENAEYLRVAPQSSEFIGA
Sequence of EGFR L858R/T790M double mutant enzyme (P00533 25-1210 T790M/L858R): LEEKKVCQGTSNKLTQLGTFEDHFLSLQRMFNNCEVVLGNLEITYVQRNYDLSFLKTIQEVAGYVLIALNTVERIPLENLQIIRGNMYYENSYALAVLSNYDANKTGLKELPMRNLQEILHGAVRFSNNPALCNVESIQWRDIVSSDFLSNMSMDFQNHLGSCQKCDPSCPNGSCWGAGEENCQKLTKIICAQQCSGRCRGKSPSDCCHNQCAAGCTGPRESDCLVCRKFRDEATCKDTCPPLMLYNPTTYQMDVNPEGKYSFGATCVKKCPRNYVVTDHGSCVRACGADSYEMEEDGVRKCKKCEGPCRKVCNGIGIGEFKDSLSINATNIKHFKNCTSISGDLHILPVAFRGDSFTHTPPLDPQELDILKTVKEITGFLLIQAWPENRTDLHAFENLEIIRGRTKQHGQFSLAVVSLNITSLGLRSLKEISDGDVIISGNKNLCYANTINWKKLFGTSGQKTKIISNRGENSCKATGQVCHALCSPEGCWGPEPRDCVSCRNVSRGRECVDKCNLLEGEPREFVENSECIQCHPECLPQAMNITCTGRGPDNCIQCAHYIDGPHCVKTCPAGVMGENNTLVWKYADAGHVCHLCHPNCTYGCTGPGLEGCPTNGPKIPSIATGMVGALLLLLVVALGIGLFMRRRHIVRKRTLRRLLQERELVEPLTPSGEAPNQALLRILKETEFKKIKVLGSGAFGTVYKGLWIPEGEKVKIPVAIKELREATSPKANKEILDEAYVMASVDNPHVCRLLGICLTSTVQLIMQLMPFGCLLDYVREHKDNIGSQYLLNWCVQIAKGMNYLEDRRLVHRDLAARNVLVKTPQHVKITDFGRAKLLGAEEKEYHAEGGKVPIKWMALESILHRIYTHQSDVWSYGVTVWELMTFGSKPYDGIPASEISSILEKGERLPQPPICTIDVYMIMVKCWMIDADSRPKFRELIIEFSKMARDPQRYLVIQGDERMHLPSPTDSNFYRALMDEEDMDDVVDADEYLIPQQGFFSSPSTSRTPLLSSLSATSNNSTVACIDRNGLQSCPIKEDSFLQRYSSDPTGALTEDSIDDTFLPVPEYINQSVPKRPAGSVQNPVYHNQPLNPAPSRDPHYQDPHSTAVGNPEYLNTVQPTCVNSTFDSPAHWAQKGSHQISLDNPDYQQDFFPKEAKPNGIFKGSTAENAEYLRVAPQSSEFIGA

C=CC(=O)Nc1cc(Nc2ncc(C(=O)OC(C)C)c(-c3cn(OC)c4ccccc34)n2)c(OC)cc1N(C)CCN(C)C.CS(=O)(=O)O [Compound 1]
clearance ([1]; intravenous injection 2 mg/kg): 57.7 mL/min/kg | half-life ([1]; intravenous injection 2 mg/kg): 1.76 h | AUC [1, 6]: 0.884 µM·h | Vd [1, 7]: 6.95 L/kg | Cmax ([1]; oral 10 mg/kg): 300 nM | Tmax ([1]; oral 10 mg/kg): 2 h | bioavailability ([1]; oral 10 mg/kg): 22.1% | AUC(0-t) ([1]; oral 10 mg/kg, read-out: Exposure of AUC0-last): 1.42 µM·h | IC50 (Wild-type EGFR enzymes): 0.39 nM | IC50 [2]: 3.71 nM | clearance ([3]; intravenous injection 2 mg/kg): 90.5 mL/min/kg | half-life ([3]; intravenous injection 2 mg/kg): 2.62 h | AUC [3, 6]: 0.548 µM·h | Vd [3, 7]: 18 L/kg | bioavailability ([3]; oral 10 mg/kg): 21.6% | AUC(0-t) ([3]; oral 10 mg/kg): 0.593 µM·h | bioavailability ([3]; oral 20 mg/kg): 57.1% | AUC(0-t) ([3]; oral 20 mg/kg): 3.13 µM·h | bioavailability ([3]; oral 50 mg/kg): 68.6% | AUC(0-t) ([3]; oral 50 mg/kg): 9.39 µM·h | bioavailability ([3]; oral 200 mg/kg): 34.5% | AUC(0-t) ([3]; oral 200 mg/kg): 18.9 µM·h | Tumor volume (Day 0) ([4]; Day 0 (grouping), mean ± standard error, n = 6): 153 ± 7 mm^3 | RTV ([4]; Day 20): 0.20 ± 0.10 | T/C ([4]; Day 20): 1.35% | TGI ([4]; Day 20): 105.3% | Tumor volume (Day 20) ([4]; Day 20, mean ± standard error, n = 6): 33 ± 16 mm^3 | IC50 [5]: 1.86 nM
